Test results taken from patent publication US20060069132A1, “Azolecarboxamide herbicides” (priority 2004, published 2006).

How the values were obtained:
[1] = tested on: small flower umbrella sedge; assay: Test B flooded paddy test; format: in vivo, Cyperus difformis; conditions: scale 0 to 100 (0 no effect, 100 complete control); for Sedge, Umbrella plant response rating: 1000 g ai/ha
In short: (§1)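 Plants grow to 1- to 4-leaf stage (2–18 cm) for postemergence spraying, or to 2-leaf stage for the paddy test. Formulated compound is applied. Greenhouse holding lasts 13–15 days. Response is scored visually relative to controls, 0 no effect to 100 complete control; a dash means no result.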

corn = assay: Test B pre-/postemergence herbicide test; format: in vivo, Zea mays; conditions: for Corn plant response rating: postemergence
In short: (§2)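 Formulation: non-phytotoxic solvent mix with surfactant. Timing: preemergence on seed and postemergence on 2–18 cm plants, applied concurrently. Readout after 13–15 d greenhouse: visual 0–100 control rating against controls.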

blackgrass = assay: Test B postemergence herbicide test; format: in vivo, Alopecurus myosuroides; conditions: postemergence
In short: as §1

pigweed = assay: Test B pre-/postemergence herbicide test; format: in vivo, Amaranthus retroflexus; conditions: for Pigweed plant response rating: postemergence
In short: as §2

wild oat = assay: Test B postemergence herbicide test; format: in vivo, Avena fatua; conditions: postemergence
In short: (§3)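 After treating 2-leaf paddy plants or 2–18 cm postemergence plants (1 to 4 leaves) with formulated chemical, researchers kept them in a greenhouse for 13–15 days. Effects were judged visually versus controls: 0 indicates none, 100 total control.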

ducksalad = assay: Test B flooded paddy test; format: in vivo, Heteranthera limosa; conditions: scale 0 to 100 (0 no effect, 100 complete control); for Ducksalad plant response rating: 1000 g ai/ha
In short: as §1

large crabgrass = assay: Test B pre-/postemergence herbicide test; format: in vivo, Digitaria sanguinalis; conditions: for Crabgrass, Large plant response rating: postemergence
In short: as §2

rice = assay: Test B flooded paddy test; format: in vivo, Oryza sativa; conditions: scale 0 to 100 (0 no effect, 100 complete control); for Rice plant response rating: 1000 g ai/ha
In short: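 Scale 0–100: zero equals no visible effect, 100 complete control, judged by eye relative to controls. Timing: 13 to 15 days in greenhouse post-treatment. Growth stage at spraying: two leaves (paddy) or one to four leaves, 2–18 cm (postemergence).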

lambsquarters = assay: Test B pre-/postemergence herbicide test; format: in vivo, Chenopodium album; conditions: for Lambsquarters plant response rating: postemergence
In short: as §2

Surinam grass = assay: Test B pre-/postemergence herbicide test; format: in vivo, Urochloa decumbens; conditions: for Surinam Grass plant response rating: postemergence
In short: as §2

velvetleaf = assay: Test B pre-/postemergence herbicide test; format: in vivo, Abutilon theophrasti; conditions: for Velvetleaf plant response rating: postemergence
In short: as §2

wheat = assay: Test B postemergence herbicide test; format: in vivo, Triticum aestivum; set-up: key to Wheat plant response rating: 0 = no effect, 100 = complete control; conditions: postemergence
In short: as §3

barnyardgrass = assay: Test B pre-/postemergence herbicide test; format: in vivo, Echinochloa crus-galli; conditions: for Barnyardgrass plant response rating: postemergence
In short: (§4)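 Species tested were Echinochloa crus-galli, Ipomoea coccinea, Xanthium strumarium and Oryza sativa, treated both before emergence and at the 1- to 4-leaf stage; rice and barnyardgrass were also tested under flooding at 2 leaves. Greenhouse incubation lasted 13–15 days before visual 0–100 scoring.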

giant foxtail = assay: Test B pre-/postemergence herbicide test; format: in vivo, Setaria faberi; conditions: for Foxtail, Giant plant response rating: postemergence
In short: as §2

morningglory = assay: Test B pre-/postemergence herbicide test; format: in vivo, Ipomoea coccinea; conditions: for Morningglory plant response rating: postemergence
In short: as §4

[2] = 125 g ai/ha, 0 = no effect, 100 = complete control, preemergence
[3] = 500 g ai/ha, visual rating, 0 = no effect, 100 = complete control, preemergence
[4] = 500 g ai/ha, scale 0 to 100, 0 is no effect, 100 is complete control
[5] = 125 g ai/ha, visual rating, scale 0 (no effect) to 100 (complete control)
[6] = 125 g ai/ha, 0 is no effect, 100 is complete control, preemergence

`CCN(C)C(=O)c1ccc(F)c(NC(=O)C2CC(C(C)(C)C)=NN2CC)c1` (racemic) [Compound 307] was tested, and the “Sedge, Umbrella plant response rating” value [1] was 90, the “Corn plant response rating (0 to 100 scale)” value (corn; [2]) was 70 and the “Plant response rating, Corn” value (corn; [3]) was 80. The “Corn plant response rating” value (corn; [4]) was 10, the “Blackgrass plant response rating” value (blackgrass; [5]) was 10 and the “Blackgrass plant response rating” value (blackgrass; [4]) was 30. The “Pigweed plant response rating (0 to 100 scale)” value (pigweed; [2]) was 100, the “Pigweed plant response rating” value (pigweed; [5]) was 50 and the “Plant response rating, Pigweed” value (pigweed; [3]) was 100. For the same compound, the “Pigweed plant response rating” value (pigweed; [4]) was 60, the “Oat, Wild plant response rating” value (wild oat; [5]) was 0 and the “Oat, Wild plant response rating” value (wild oat; [4]) was 20. The “Ducksalad plant response rating” value (ducksalad) was 80, the “Crabgrass, Large plant response rating (0 to 100 scale)” value (large crabgrass; [2]) was 90 and the “Crabgrass, Large plant response rating” value (large crabgrass; [5]) was 10. The “Plant response rating, Crabgrass, Large” value (large crabgrass; [3]) was 100, the “Crabgrass, Large plant response rating” value (large crabgrass; [4]) was 30 and the “Rice plant response rating” value (rice) was 90. The “Lambsquarters plant response rating (0 to 100 scale)” value (lambsquarters; [2]) was 100, the “Lambsquarters plant response rating” value (lambsquarters; [5]) was 60 and the “Plant response rating, Lambsquarters” value (lambsquarters; [3]) was 100. For the same compound, the “Lambsquarters plant response rating” value (lambsquarters; [4]) was 80, the “Surinam Grass plant response rating (0 to 100 scale)” value (Surinam grass; [2]) was 70 and the “Surinam Grass plant response rating” value (Surinam grass; [5]) was 10. For the same compound, the “Plant response rating, Surinam Grass” value (Surinam grass; [3]) was 90, the “Surinam Grass plant response rating” value (Surinam grass; [4]) was 30 and the “Velvetleaf plant response rating” value (velvetleaf; [5]) was 10. For the same compound, the “Plant response rating, Velvetleaf” value (velvetleaf; [3]) was 100, the “Velvetleaf plant response rating” value (velvetleaf; [4]) was 60 and the “Wheat plant response rating” value (wheat; [5]) was 0. The “Wheat plant response rating” value (wheat; [4]) was 20, the “Barnyardgrass plant response rating (0 to 100 scale)” value (barnyardgrass; [2]) was 80 and the “Barnyardgrass plant response rating” value (barnyardgrass; [5]) was 0. For the same compound, the “Plant response rating, Barnyardgrass” value (barnyardgrass; [3]) was 100, the “Barnyardgrass plant response rating” value (barnyardgrass; [4]) was 10 and the “Foxtail, Giant plant response rating (0 to 100 scale)” value (giant foxtail; [2]) was 90. For the same compound, the “Foxtail, Giant plant response rating” value (giant foxtail; [5]) was 20, the “Plant response rating, Foxtail, Giant” value (giant foxtail; [3]) was 90 and the “Foxtail, Giant plant response rating” value (giant foxtail; [4]) was 30. For the same compound, the “Morningglory plant response rating (0 to 100 scale)” value (morningglory; [2]) was 0, the “Morningglory plant response rating” value (morningglory; [5]) was 0 and the “Plant response rating, Morningglory” value (morningglory; [3]) was 10. The “Morningglory plant response rating” value (morningglory; [4]) was 0.

For `CCC1=NN(C(C)(C)C)CC1C(=O)Nc1cc(C(=O)N(C)C)ccc1F` (racemic) [Compound 343], the “Sedge, Umbrella plant response rating” value [1] was 90, the “Corn plant response rating” value (corn; [5]) was 10 and the “Corn plant response rating” value (corn; [4]) was 30. The “Blackgrass plant response rating” value (blackgrass; [5]) was 0, the “Blackgrass plant response rating” value (blackgrass; [4]) was 10 and the “Plant response rating (0 to 100 scale), Pigweed” value (pigweed; [6]) was 90. For the same compound, the “Pigweed plant response rating” value (pigweed; [5]) was 40, the “Plant response rating, Pigweed” value (pigweed; [3]) was 100 and the “Pigweed plant response rating” value (pigweed; [4]) was 90. The “Oat, Wild plant response rating” value (wild oat; [5]) was 10, the “Oat, Wild plant response rating” value (wild oat; [4]) was 10 and the “Ducksalad plant response rating” value (ducksalad) was 90. The “Plant response rating (0 to 100 scale), Crabgrass, Large” value (large crabgrass; [6]) was 40, the “Crabgrass, Large plant response rating” value (large crabgrass; [5]) was 20 and the “Plant response rating, Crabgrass, Large” value (large crabgrass; [3]) was 100. For the same compound, the “Crabgrass, Large plant response rating” value (large crabgrass; [4]) was 50, the “Rice plant response rating” value (rice) was 80 and the “Plant response rating (0 to 100 scale), Lambsquarters” value (lambsquarters; [6]) was 90. The “Lambsquarters plant response rating” value (lambsquarters; [5]) was 40, the “Plant response rating, Lambsquarters” value (lambsquarters; [3]) was 100 and the “Lambsquarters plant response rating” value (lambsquarters; [4]) was 100. The “Plant response rating (0 to 100 scale), Surinam Grass” value (Surinam grass; [6]) was 50, the “Surinam Grass plant response rating” value (Surinam grass; [5]) was 10 and the “Plant response rating, Surinam Grass” value (Surinam grass; [3]) was 100. For the same compound, the “Surinam Grass plant response rating” value (Surinam grass; [4]) was 40, the “Plant response rating (0 to 100 scale), Velvetleaf” value (velvetleaf; [6]) was 100 and the “Velvetleaf plant response rating” value (velvetleaf; [5]) was 20. For the same compound, the “Velvetleaf plant response rating” value (velvetleaf; [4]) was 50, the “Wheat plant response rating” value (wheat; [5]) was 0 and the “Wheat plant response rating” value (wheat; [4]) was 0. For the same compound, the “Plant response rating (0 to 100 scale), Barnyardgrass” value (barnyardgrass; [6]) was 70, the “Barnyardgrass plant response rating” value (barnyardgrass; [5]) was 10 and the “Plant response rating, Barnyardgrass” value (barnyardgrass; [3]) was 100. The “Barnyardgrass plant response rating” value (barnyardgrass; [4]) was 50, the “Plant response rating (0 to 100 scale), Foxtail, Giant” value (giant foxtail; [6]) was 30 and the “Foxtail, Giant plant response rating” value (giant foxtail; [5]) was 30. For the same compound, the “Plant response rating, Foxtail, Giant” value (giant foxtail; [3]) was 100, the “Foxtail, Giant plant response rating” value (giant foxtail; [4]) was 50 and the “Plant response rating (0 to 100 scale), Morningglory” value (morningglory; [6]) was 50. The “Morningglory plant response rating” value (morningglory; [5]) was 30, the “Plant response rating, Morningglory” value (morningglory; [3]) was 100 and the “Morningglory plant response rating” value (morningglory; [4]) was 80.

For `CCNC(=O)c1cccc(NC(=O)c2nc(C(C)(C)C)nn2CC)c1` [Compound 446, 3-(1,1-dimethylethyl)-1-ethyl-N-[3-[(ethylamino)carbonyl]phenyl]-1H-1,2,4-triazole-5-carboxamide], the pest or weed control at 125 g/ha ([1]; Cyperus difformis, 336 h, 125 g ai/ha, read-out: Sedge, Umbrella plant response rating) was 90%, the pest or weed control at 500 g/ha ([1]; Cyperus difformis, 336 h, 500 g ai/ha, read-out: Sedge, Umbrella plant response rating) was 90% and the pest or weed control at 125 g/ha (ducksalad; Heteranthera limosa, 336 h, 125 g ai/ha, read-out: Ducksalad plant response rating) was 70%. It also gave a pest or weed control at 500 g/ha (ducksalad; Heteranthera limosa, 336 h, 500 g ai/ha, read-out: Ducksalad plant response rating) of 80%, a plant injury at 125 g/ha (rice; Oryza sativa, 336 h, 125 g ai/ha, read-out: Rice plant response rating) of 80% and a plant injury at 500 g/ha (rice; Oryza sativa, 336 h, 500 g ai/ha, read-out: Rice plant response rating) of 90%.
